Patent US11135186B2, “Regulators of the endoplasmic reticulum proteostasis network” (The Scripps Research Institute, priority 2015, dated 2021)

Assays:
HEK293T-Rex cells = assay: mRNA-Seq transcriptional profiling and geneset analysis in HEK293T-Rex cells; type: cell-based, human; conditions: for activation of the ATF6 geneset relative to Tg: mRNA-seq geneset analysis; for BiP mRNA-Seq fold change (relative to Vh) / GRP94 mRNA-Seq fold change (relative to Vh) / SEL1L mRNA-Seq fold change (relative to Vh): ATF6-selective gene; for BiP mRNA-Seq fold change (relative to Vh) / GRP94 mRNA-Seq fold change (relative to Vh) / SEL1L mRNA-Seq fold change (relative to Vh) / DNAJB1 mRNA-Seq fold change (relative to Vh) / HSPA1A mRNA-Seq fold change (relative to Vh) / HSPA8 mRNA-Seq fold change (relative to Vh) / ASNS mRNA-Seq fold change (relative to Vh) / DDIT3 (CHOP) mRNA-Seq fold change (relative to Vh) / TrIB3 mRNA-Seq fold change (relative to Vh) / ERdj3 mRNA-Seq fold change (relative to Vh) / HYOU1 mRNA-Seq fold change (relative to Vh) / p58IPK mRNA-Seq fold change (relative to Vh) / DNAJC10 mRNA-Seq fold change (relative to Vh) / HSPA13 mRNA-Seq fold change (relative to Vh) / SEC24D mRNA-Seq fold change (relative to Vh): compounds 10 μM, Tg 1 μM; for DNAJB1 mRNA-Seq fold change (relative to Vh) / HSPA1A mRNA-Seq fold change (relative to Vh) / HSPA8 mRNA-Seq fold change (relative to Vh): HSF1 target gene; for ASNS mRNA-Seq fold change (relative to Vh) / DDIT3 (CHOP) mRNA-Seq fold change (relative to Vh) / TrIB3 mRNA-Seq fold change (relative to Vh): PERK target gene; for ERdj3 mRNA-Seq fold change (relative to Vh) / HYOU1 mRNA-Seq fold change (relative to Vh) / p58IPK mRNA-Seq fold change (relative to Vh): XBP1s- or ATF6-target gene; for DNAJC10 mRNA-Seq fold change (relative to Vh) / HSPA13 mRNA-Seq fold change (relative to Vh) / SEC24D mRNA-Seq fold change (relative to Vh): XBP1s-selective gene
Method: HEK293T-Rex and HEK293^DAX cells in 12-well plates were treated for 6 h with vehicle, 1 μM Tg, 10 μM TMP (in HEK293^DAX), or 10 μM 132, 147 or 263 in biological triplicate at 37° C. Cells were harvested, and RNA was extracted using the RNeasy Mini Kit (Qiagen). Total RNA was quantified using NanoDrop (ND-1000). Samples were run on the Illuina HiSeq system.
Single end, 100 bp-long reads from RNA-Seq experiments were aligned to the GRCh37.p13 human genome reference assembly using SeqMan NGen 11.2.1 (DNAStar, Inc.). The assembly data were then imported into ArrayStar with QSeq (DNAStar, Inc.) to quantify the gene expression levels. The sequence counts were normalized to reads per kilobase per million (RPKM) after filtering out non-mRNA sequence features. The statistical significance of the difference between the expression levels of a gene under different conditions was assessed using a Student's t-test with the Benjamini-Hochberg multiple testing correction.
ATF6- and XBP1s-selective target genes were identified from transcriptional profiles of HEK293D^X cells following stress-independent activation of TMP-dependent DHFR-ATF6 and/or tetracycline inducible XBP1s, as previously described^4. PERK-selective target genes were identified from^8. Only ATF6-, XBP1s- or PERK-selective genes induced >1.5 fold in Tg-treated samples were used in this analysis. The log transformed fold-increase of these target genes in HEK293T-Rex cells treated with the respective ER proteostasis regulators were then normalized to the log transformed fold increase of these genes induced by Tg treatment. The plots shown in FIG. 5b-e were prepared as box and whisker plots using Kaleidograph. Differential activation of the ATF6, XBP1s, and PERK genesets was assessed by one-way ANOVA and significance of pairwise comparison confirmed by unpaired t-test. An analogous strategy was employed to prepare the heat map using transcriptional data from the MGE analysis.

[1] = test system: ALLC interaction with BiP and GRP94; assay: In situ cross-linking and ALLC co-immunopurification in ALMC-2 cells; type: cell-based, human; conditions: 10 μM, 16 h, cross-linking
Method: For immunoprecipitations, cells were washed with PBS then cross-linked with 0.5 mM Dithiobis(succinimidyl propionate) (DSP) for 30 min at room temperature. The reaction was quenched by addition of 100 mM Tris pH 7.5, then RIPA buffer was added to the cell pellets for lysis. Lysates were cleared by centrifugation at centrifuged at 10000×g for 15 min. Proteins were immunopurified using sheep polyclonal free λ LC antibody (Bethyl Laboratories A80-127A) that was covalently conjugated to CNBr-activated Sepharose 4B (GE Healthcare). After four washes in RIPA buffer, proteins were eluted by boiling in Laemmli buffer+100 mM DTT and samples were separated by SDS-PAGE and transferred to nitrocellulose membranes. Blots were probed with the following primary antibodies: monoclonal mouse M2 anti-FLAG (1:500, Sigma), polyclonal rabbit anti-TTR (1:1000, Dako), rabbit polyclonal anti-human lambda light chain (1:1000, Bethyl Laboratories A90-112A), mouse monoclonal anti-Grp78 (1:500, Santa Cruz Biotechnology sc-166490), rabbit polyclonal anti-Grp94 (1:1000, GeneTex GTX103203), rabbit polyclonal anti-PDIA4 (1:1000, Protein Tech Group 14712-1-AP), mouse monoclonal anti-ATF6a (1-7) (BioAcademia, 1:1000), rabbit anti-phospho eIF2α (CellSignaling #9721, 1:500), mouse anti-eIF2α (Abcam ab5369, 1:1000) and mouse monoclonal anti β-actin (1:10000, Sigma).

[2] = test system: BiP expression in HepG2 cells; assay: BiP qPCR in HepG2 cells; type: cell-based
Method: (§1) Cells were treated as described at 37° C., washed with Dulbecco's phosphate-buffered saline (Gibco), and then RNA was extracted using the RNeasy Mini Kit (Qiagen). qPCR reactions were performed on cDNA prepared from 500 ng of total cellular RNA using the QuantiTect Reverse Transcription Kit (Qiagen). The FastStart Universal SYBR Green Master Mix (Roche), cDNA, and appropriate human primers^4 or mouse primers (BiP; […] (SEQ ID NO: 5) and […] (SEQ ID NO: 6) purchased from Integrated DNA Technologies were used for amplifications (45 cycles of 1 min at 95° C., 10 s at 95° C., 30 sec at 60° C.) in an ABI 7900HT Fast Real Time PCR machine. Primer integrity was assessed by a thermal melt to confirm homogeneity and the absence of primer dimers. Transcripts were normalized to the housekeeping gene Rplp2 and all measurements were performed in triplicate. Data were analyzed using the RQ Manager and DataAssist 2.0 softwares (ABI).

BiP expression = assay: BiP qPCR 24 h timecourse; type: cell-based
Method: as §1

Row | Structure (SMILES) | slope of log2 mRNA fold change with compound versus with Tg (HEK293T-Rex cells; 10 μM, 6 h, ER proteostasis genes) | activation of the ATF6 geneset relative to Tg (HEK293T-Rex cells; 10 μM) | BiP mRNA-Seq fold change (relative to Vh) (HEK293T-Rex cells; 6 h) | GRP94 mRNA-Seq fold change (relative to Vh) (HEK293T-Rex cells; 6 h) | SEL1L mRNA-Seq fold change (relative to Vh) (HEK293T-Rex cells; 6 h) | DNAJB1 mRNA-Seq fold change (relative to Vh) (HEK293T-Rex cells; 6 h) | HSPA1A mRNA-Seq fold change (relative to Vh) (HEK293T-Rex cells; 6 h) | HSPA8 mRNA-Seq fold change (relative to Vh) (HEK293T-Rex cells; 6 h) | ASNS mRNA-Seq fold change (relative to Vh) (HEK293T-Rex cells; 6 h) | DDIT3 (CHOP) mRNA-Seq fold change (relative to Vh) (HEK293T-Rex cells; 6 h) | TrIB3 mRNA-Seq fold change (relative to Vh) (HEK293T-Rex cells; 6 h) | ERdj3 mRNA-Seq fold change (relative to Vh) (HEK293T-Rex cells; 6 h) | HYOU1 mRNA-Seq fold change (relative to Vh) (HEK293T-Rex cells; 6 h) | p58IPK mRNA-Seq fold change (relative to Vh) (HEK293T-Rex cells; 6 h) | DNAJC10 mRNA-Seq fold change (relative to Vh) (HEK293T-Rex cells; 6 h) | HSPA13 mRNA-Seq fold change (relative to Vh) (HEK293T-Rex cells; 6 h) | SEC24D mRNA-Seq fold change (relative to Vh) (HEK293T-Rex cells; 6 h) | ALLC interaction with BiP and GRP94 [1] | expression of the ATF6-target gene BiP in HepG2 cells [2] | time of maximal BiP induction (BiP expression)
1 | Cc1ccc(O)c(N/C=C/C(=O)c2ccc(F)cc2)c1 [Compound 132] | 1 | 75% | 9.1 fold | 3.5 fold | 4.9 fold | 3.0 fold | 9.3 fold | 1.5 fold | 2.7 fold | 10.6 fold | 5.8 fold | 2.9 fold | 3.6 fold | 3.7 fold | 1.4 fold | 2.6 fold | 3.1 fold | increased | induced | 6 h
2 | Cc1ccc(O)c(NC(=O)CCc2ccccc2)c1 [Compound 147] |  | 45% | 3.3 fold | 1.8 fold | 2.2 fold | 1.6 fold | 3.2 fold | 1.3 fold | 1.0 fold | 1.7 fold | 1.0 fold | 1.7 fold | 1.8 fold | 1.8 fold | 1.1 fold | 1.2 fold | 1.4 fold | increased | induced | 6 h
3 | O=[N+]([O-])c1ccc(N/N=C/c2ccccc2O)cc1 [Compound 263] |  | 50% | 5.7 fold | 2.5 fold | 2.7 fold | 1.4 fold | 2.5 fold | 1.3 fold | 1.5 fold | 2.0 fold | 1.3 fold | 2.4 fold | 2.7 fold | 2.9 fold | 1.3 fold | 1.7 fold | 2.1 fold | unchanged | induced | 6 h
